Measured values as given in article PMC5607274, “An iterative compound screening contest method for identifying target protein inhibitors using the tyrosine-protein kinase Yes” (Scientific Reports, 2017).
Blank lines part the entries; values can stand above or below the compound they belong to.

Target: T1, human recombinant Yes [a.a. 2–543 (end)] (Homo sapiens, UniProt P07947)
T1 construct: human recombinant Yes [a.a; 2–543 (end)]; purchased BPS Bioscience 40488
Experiment: ADP-Glo kinase assay, inhibition rates of Yes phosphorylation activity (first and second screening)
Type: biochemical
Conditions: first screening; mean of n = 4 wells; 10 μmol L−1 compound
Outline: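 Hits from a first pass were rescreened after re-dissolution from fresh powder. The first pass reported the mean inhibition rate of quadruplicate wells per compound. Activity was that of recombinant human Yes [a.a. 2–543] kinase, read out with the ADP-Glo ADP-detection method.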

T1 sequence (P07947 2-543): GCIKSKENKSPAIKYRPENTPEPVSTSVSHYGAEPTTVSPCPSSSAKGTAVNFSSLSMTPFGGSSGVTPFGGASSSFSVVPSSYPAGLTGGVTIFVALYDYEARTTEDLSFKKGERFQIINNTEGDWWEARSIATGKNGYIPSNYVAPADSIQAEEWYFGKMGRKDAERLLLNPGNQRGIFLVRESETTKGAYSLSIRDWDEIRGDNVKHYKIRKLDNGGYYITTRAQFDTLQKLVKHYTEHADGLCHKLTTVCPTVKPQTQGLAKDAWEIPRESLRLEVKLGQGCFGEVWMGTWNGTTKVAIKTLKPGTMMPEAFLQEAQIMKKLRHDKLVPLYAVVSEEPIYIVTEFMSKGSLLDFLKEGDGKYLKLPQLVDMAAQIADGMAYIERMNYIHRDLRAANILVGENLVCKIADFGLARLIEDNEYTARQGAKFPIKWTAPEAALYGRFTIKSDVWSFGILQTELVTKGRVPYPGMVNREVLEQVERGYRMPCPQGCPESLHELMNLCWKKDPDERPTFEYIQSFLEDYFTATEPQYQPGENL

Structure (SMILES): Cn1cc(/C=N/Nc2ccnc3cc(Cl)ccc23)cn1 [Compound Z65478686]
First screening IR (inhibition rate): 2%

Structure (SMILES): CC(C)(C)NC(=O)CN1CCN(C(=O)CSc2nc3ccccc3c(=O)n2-c2ccccc2)CC1 [Compound Z65695011]
First screening IR (inhibition rate): 57%

Structure (SMILES): Cn1c(SCC(=O)N2c3ccccc3OCC2c2ccccc2)nnc1-c1ccncc1 (stereo not shown) [Compound Z65769442]
First screening IR (inhibition rate): -1%

Structure (SMILES): COc1ccc(-c2nnc(SCC(=O)N3c4ccccc4OCC3c3ccccc3)n2C)cc1 (stereo not shown) [Compound Z65980497]
First screening IR (inhibition rate): -3%

Structure (SMILES): O=C(Nc1nc2c(s1)CN(Cc1ccccc1)CC2)c1cc2c(nc3sccn32)s1 [Compound Z68435865]
First screening IR (inhibition rate): -4%

Structure (SMILES): COc1ccc(-c2cc(NC(=O)C3CCC(=O)N3)ccc2OC(F)F)cc1 (stereo not shown) [Compound Z70775126]
First screening IR (inhibition rate): -6%

Structure (SMILES): CCCOc1ccc(OCC(=O)Nc2ccc3oc(C)nc3c2)cc1 [Compound Z70909650]
First screening IR (inhibition rate): 11%

Structure (SMILES): CCN(CC)c1ccc([N+](=O)[O-])cc1C(=O)Nc1ccc2nc(N3CCOCC3)sc2c1 [Compound Z70970124]
First screening IR (inhibition rate): 9%

Structure (SMILES): COc1ccc(CCN2CC(C(=O)Nc3c(-c4ccccc4)nc4ccc(C)cn34)CC2=O)cc1OC (stereo not shown) [Compound Z70997275]
First screening IR (inhibition rate): -15%

Structure (SMILES): O=C(NCCOc1ccc(Cl)cc1)c1ccc2nc[nH]c2c1 [Compound Z73381327]
First screening IR (inhibition rate): 12%

Structure (SMILES): CC(C)n1ncc2c(C(=O)N3CCN(CC(=O)N4CCOCC4)CC3)cc(-c3ccccc3)nc21 [Compound Z73457343]
First screening IR (inhibition rate): 7%

Structure (SMILES): CC(C)(C)C(=O)NCc1ccc(C(=O)COC(=O)c2cc3c(s2)CCC3)s1 [Compound Z73973253]
First screening IR (inhibition rate): 9%

Structure (SMILES): CCOC(=O)c1cnc(SCC(=O)OC/C(O)=C(\C#N)c2nc3ccccc3[nH]2)nc1N [Compound Z76798588]
First screening IR (inhibition rate): 5%

Structure (SMILES): CC1CCc2c(sc3nc4c(c(-c5ccco5)c23)-c2ccccc2CC4)C1.Cl (stereo not shown) [Compound Z76887050]
First screening IR (inhibition rate): 8%

Structure (SMILES): Cc1cc(/C=C/C(=O)N2CCOCC2)c(C)n1-c1ccnn1C(C)C [Compound Z79434439]
First screening IR (inhibition rate): 15%

Structure (SMILES): Cc1noc(C)c1CC(=O)NN=C(c1ccccc1)c1ccccc1 [Compound Z79575803]
First screening IR (inhibition rate): -9%

Structure (SMILES): CCN(CC)CCNC(=O)c1ccc(NC(=O)C2CCN(c3ncnc4sc(C)c(C)c34)CC2)cc1 [Compound Z79604730]
First screening IR (inhibition rate): -1%

Structure (SMILES): Cc1ccc(-c2csc3ncn(CC(=O)N4CCN(CC(=O)NC(C)(C)C)CC4)c(=O)c23)cc1C [Compound Z81619452]
First screening IR (inhibition rate): -8%

Structure (SMILES): CCCCOc1ccc(C(=O)NCC(=O)NCC(c2cccs2)N2CCOCC2)cc1 (stereo not shown) [Compound Z84671779]
First screening IR (inhibition rate): 6%

Structure (SMILES): Cc1ccc(Nc2ncnc3sc4c(c23)CCCC4)c(O)c1 [Compound Z85929120]
First screening IR (inhibition rate): 2%

Structure (SMILES): O=C(COC(=O)c1ccco1)Nc1nc2ccc([N+](=O)[O-])cc2s1 [Compound Z85929771]
First screening IR (inhibition rate): 10%

Structure (SMILES): COc1ccc(-c2cc3c4ccccc4oc4nc(=N)c(C#N)c([nH]2)c43)cc1 [Compound Z85934217]
First screening IR (inhibition rate): 5%

Structure (SMILES): O=C(Cn1c(CN2CCOCC2)nc2sc3c(c2c1=O)CCCC3)Nc1ccc(OCc2ccccc2)cc1 [Compound Z86108588]
First screening IR (inhibition rate): 16%

Structure (SMILES): CC(NC(=O)Nc1ccc(F)cc1F)c1ccc(-n2cncn2)cc1 (stereo not shown) [Compound Z86212654]
First screening IR (inhibition rate): -3%

Structure (SMILES): O=C(Nc1nc(-c2ccccc2)cs1)c1cc2ccccc2s1 [Compound Z87524039]
First screening IR (inhibition rate): 20%

Structure (SMILES): O=C(NCC1(N2CCCCC2)CCCCC1)c1ccc(S(=O)(=O)NC2CC2)cc1 [Compound Z87649109]
First screening IR (inhibition rate): -3%

Structure (SMILES): CC(NC(=O)c1ccc(-n2cnc3ccccc32)cc1)c1ccc(S(N)(=O)=O)cc1 (stereo not shown) [Compound Z87656555]
First screening IR (inhibition rate): -5%

Structure (SMILES): O=C(NCC(c1ccccc1Cl)N1CCCC1)C1CCN(C(=O)c2cccs2)CC1 (stereo not shown) [Compound Z87671607]
First screening IR (inhibition rate): -35%

Structure (SMILES): N#Cc1ccccc1CSCCNC(=O)c1ccc2nc[nH]c2c1 [Compound Z88237436]
First screening IR (inhibition rate): -1%

Structure (SMILES): O=C(c1cccnc1N1CCCC1)N1CCN(C(=O)C2COc3ccccc3O2)CC1 (stereo not shown) [Compound Z88468962]
First screening IR (inhibition rate): -8%

Structure (SMILES): CC(NCc1ccc(C(=O)Nc2ccccc2)cc1)c1ccc2c(c1)OCCO2 (stereo not shown) [Compound Z89008298]
First screening IR (inhibition rate): -38%

Structure (SMILES): N#Cc1ccc(CN2CCN(Cc3c(-c4ccccc4)nc4sccn34)CC2)cc1 [Compound Z89137945]
First screening IR (inhibition rate): -31%

Structure (SMILES): COc1ccc(CN2CCN(Cc3c(-c4ccccc4)nc4ccccn34)CC2)cc1OC [Compound Z89207636]
First screening IR (inhibition rate): 45%

Structure (SMILES): Cc1ccc(-c2c(C)sc3nc(CN4CCN(CC(=O)N5CCOCC5)CC4)[nH]c(=O)c23)cc1 [Compound Z89215884]
First screening IR (inhibition rate): 5%

Structure (SMILES): Cc1oc(-n2cccc2)c(C#N)c1C(=O)Nc1cccc(/C=C/c2ccccn2)c1 [Compound Z89489183]
First screening IR (inhibition rate): 9%

Structure (SMILES): Cc1noc(C)c1COc1ccccc1C(=O)NCCSc1ccc(Cl)cc1 [Compound Z89513568]
First screening IR (inhibition rate): 17%

Structure (SMILES): O=C(/C=C/c1ccsc1)NC(c1ccccc1)c1cccs1 (stereo not shown) [Compound Z89582531]
First screening IR (inhibition rate): 1%

Structure (SMILES): Cc1cc(/C=C/C(=O)N2CCN(C3CCS(=O)(=O)C3)CC2)c(C)n1-c1ccc2c(c1)OCO2 (stereo not shown) [Compound Z89622401]
First screening IR (inhibition rate): -12%

Structure (SMILES): Cc1ccc(C(=O)OCc2nc(N)nc(Nc3ccccc3)n2)s1 [Compound Z89671452]
First screening IR (inhibition rate): -2%

Structure (SMILES): Cc1nn(Cc2ccccc2)c(Cl)c1C(=O)OCc1nc(N)nc(Nc2ccccc2)n1 [Compound Z89784395]
First screening IR (inhibition rate): 0%

Structure (SMILES): Cc1ccc(Cn2nc(C)c(C(=O)OCc3nc(N)nc(Nc4ccccc4)n3)c2Cl)cc1 [Compound Z89857426]
First screening IR (inhibition rate): 22%

Structure (SMILES): c1csc(-c2noc(CSc3nnc(C4CC4)n3C3CC3)n2)c1 [Compound Z90118492]
First screening IR (inhibition rate): 4%

Structure (SMILES): CCn1ncc2c(C(=O)OC)cc(-c3ccccc3)nc21 [Compound Z90171664]
First screening IR (inhibition rate): 11%

Structure (SMILES): CCn1ncc2c(C(=O)OC)cc(-c3cccs3)nc21 [Compound Z90171904]
First screening IR (inhibition rate): 20%

Now from value to compound:

First screening IR (inhibition rate): -4%
Structure (SMILES): CCN(c1ccc(-c2csc(Nc3ccc(OC)cc3)n2)cc1)S(C)(=O)=O [Compound Z64779311]

First screening IR (inhibition rate): 2%
Structure (SMILES): CCc1ccc(S(=O)(=O)N(CC)C2CCS(=O)(=O)C2)cc1 (stereo not shown) [Compound Z65566827]

First screening IR (inhibition rate): 0%
Structure (SMILES): CC(c1ccc(S(N)(=O)=O)cc1)N(C)S(=O)(=O)c1cc(Cl)cc(Cl)c1 (stereo not shown) [Compound Z65599853]

First screening IR (inhibition rate): 17%
Structure (SMILES): Cc1ccc(S(=O)(=O)N(C)c2ccc(OCC(=O)Nc3ccc4oc(C)nc4c3)cc2)cc1 [Compound Z70909087]

First screening IR (inhibition rate): 1%
Structure (SMILES): Cc1cc(C)c(C)c(S(=O)(=O)N(C)C2CCS(=O)(=O)C2)c1C (stereo not shown) [Compound Z71311814]

First screening IR (inhibition rate): -2%
Structure (SMILES): CN(C1CCS(=O)(=O)C1)S(=O)(=O)c1ccc(Cl)c(Cl)c1 (stereo not shown) [Compound Z71311982]

First screening IR (inhibition rate): -25%
Structure (SMILES): COc1ccc(S(=O)(=O)N(C)Cc2ccc3c(c2)OCO3)cc1Br [Compound Z74745150]

First screening IR (inhibition rate): 27%
Structure (SMILES): NS(=O)(=O)c1ccc2nc(-c3ccc4c(c3)-c3ccccc3C4)cn2c1 [Compound Z82176567]

First screening IR (inhibition rate): 6%
Structure (SMILES): CCN1CCC(NC(=O)C2CCN(S(=O)(=O)c3c(C)c(C)cc(C)c3C)CC2)CC1 [Compound Z85145044]

First screening IR (inhibition rate): 1%
Structure (SMILES): CCCCN(S(C)(=O)=O)S(=O)(=O)c1ccc(OC)cc1 [Compound Z85927834]

First screening IR (inhibition rate): 0%
Structure (SMILES): CS(=O)(=O)c1ccc(Cl)c(S(C)(=O)=O)c1 [Compound Z87002147]

First screening IR (inhibition rate): -1%
Structure (SMILES): O=S(=O)(c1ccc(Br)cc1Cl)N1CCN(Cc2cn3ccccc3n2)CC1 [Compound Z89065969]

First screening IR (inhibition rate): 15%
Structure (SMILES): O=S(=O)(c1ccccc1Cl)N1CCN(Cc2cn3ccccc3n2)CC1 [Compound Z89155296]

First screening IR (inhibition rate): 16%
Structure (SMILES): C=CCN(CC(=O)Nc1ccc(S(=O)(=O)N(CC)CC)cc1)Cc1cccs1 [Compound Z89203975]

First screening IR (inhibition rate): 2%
Structure (SMILES): COc1ccc(S(=O)(=O)N(C)C2CCS(=O)(=O)C2)cc1 (stereo not shown) [Compound Z89320750]

First screening IR (inhibition rate): 2%
Structure (SMILES): Cc1ccc(S(=O)(=O)N(C)C2CCS(=O)(=O)C2)cc1C (stereo not shown) [Compound Z89320796]

First screening IR (inhibition rate): 17%
Structure (SMILES): CN(C1CCS(=O)(=O)C1)S(=O)(=O)c1cc(Cl)cc(Cl)c1 (stereo not shown) [Compound Z89320874]

First screening IR (inhibition rate): 10%
Structure (SMILES): CCc1ccc(S(=O)(=O)N(C)C2CCS(=O)(=O)C2)cc1 (stereo not shown) [Compound Z89320983]

First screening IR (inhibition rate): 1%
Structure (SMILES): CCN(C1CCS(=O)(=O)C1)S(=O)(=O)c1cc(Br)ccc1C (stereo not shown) [Compound Z89358343]

First screening IR (inhibition rate): 10%
Structure (SMILES): CC1Cc2cc(C(=O)NC3(C)CCS(=O)(=O)C3)ccc2N1S(C)(=O)=O (stereo not shown) [Compound Z89460412]
